Legend:
Assay in all cases: MTT assay, inhibitory activity against growth of cancer cells
Type in all cases: cell-based
[1] = tested on: human intestinal adenocarcinoma cell line HCT-8; details: 72 h incubation
Procedure: (§1) The inhibitory activity of these chair ruthenium(II) complexes have been evaluated by MTT assay by using 5-fluorouracil (5-Fu) as positive control. Human hepatocarcinoma cell line Bel-7402, human intestinal adenocarcinoma cell line HCT-8 and Human lung adenocarcinoma epithelial cell line A-549 were supplied by the Institute of Materia Medica, Chinese Academy of Medical Sciences & Peking Union Medical College. The determination of the cytotoxicity (dark toxicity) of the compound was carried out in parallel with the phototoxicity determination following the same procedure, with the exclusion of the irradiation.
(§2) General method: Cells were diluted to 5000/ml by PRMI1640 minimal essential medium with 10% fetal calf serum (FCS), plated at 100 μl cells per well in a 96-well Corning microtiter plate, and incubated at 37° C. with 5% CO2 for 24 h. After cell was covered a single layer, drugs (10 μl) was added, and PRMI1640 minimal essential medium was supplied to make the total volume to 200 μl. After incubated for another 72 h at 37° C., 5% CO2, the medium was removed and freshly prepared MTT dissolved in DMSO (200 μl) was added, and the OD value was recorded on ELISA Reader at 544 nm. The inhibitory activity of ruthenium complexes was calculated according to equation: Inhibitory activity(%)=([…])/(ODcontrol−ODblank)×100%.

[2] = tested on: Human lung adenocarcinoma epithelial cell line A-549; details: Dosage 5 μg/ml, 72 h incubation
Procedure: as §1, §2

[3] = tested on: human hepatocarcinoma cell line Bel-7402; details: 72 h incubation
Procedure: as §1, §2

| Compound | Inhibitory activity (%) HCT-8 ([1]; Dosage 5 μg/ml) [%] | Inhibitory activity (%) HCT-8 ([1]; Dosage 50 μg/ml) [%] | Inhibitory activity (%) A-549 [2] [%] | Inhibitory activity (%) BEL-7402 ([3]; Dosage 5 μg/ml) [%] | Inhibitory activity (%) BEL-7402 ([3]; Dosage 50 μg/ml) [%] |
| --- | --- | --- | --- | --- | --- |
| F[P-](F)(F)(F)(F)F.F[P-](F)(F)(F)(F)F.c1cc[n+]2c(c1)-c1cccc[n+]1[Ru-4]213([n+]2ccccc2-c2cccc[n+]21)[n+]1ccccc1-c1[nH]c2cc4ccccc4cc2[n+]13 [Λ-4, Λ-[Ru(bpy)2(PYNI)](PF6)2] | 3.6 | 21.4 | −2.3 | 4.4 | 22.6 |
| F[P-](F)(F)(F)(F)F.F[P-](F)(F)(F)(F)F.c1cc[n+]2c(c1)-c1cccc[n+]1[Ru-4]213([n+]2ccccc2-c2cccc[n+]21)[n+]1cccc2c4nc(-c5ccc6c(c5)OCCO6)[nH]c4c4ccc[n+]3c4c21 [Λ-3, Λ-[Ru(bpy)2(IPBH)](PF6)2] | 2.1 | 39.1 | −0.92 | 3.0 | 44.3 |
| Λ-[Ru(bpy)2(IPBP)](PF6)2 [Λ-2] | 2.23 | 53.7 | −0.52 | 0.19 | 64.9 |
| Δ-[Ru(bpy)2(IPBP)](PF6)2 [Δ-2] | 13.1 | 83.4 | 18.5 | 9.6 | 86.8 |
| F[P-](F)(F)(F)(F)F.F[P-](F)(F)(F)(F)F.c1cc[n+]2c(c1)-c1cccc[n+]1[Ru-4]213([n+]2ccccc2-c2cccc[n+]21)[n+]1ccccc1-c1[nH]c2cc4ccccc4cc2[n+]13 [Δ-4, Δ-[Ru(bpy)2(PYNI)](PF6)2] | 1.8 | 38.6 | −8.2 | 2.8 | 36.0 |
| FC(F)(F)c1ccccc1-c1nc2c3ccc[n+]4c3c3c(ccc[n+]3[Ru-4]435([n+]4ccccc4-c4cccc[n+]43)[n+]3ccccc3-c3cccc[n+]35)c2[nH]1.F[P-](F)(F)(F)(F)F.F[P-](F)(F)(F)(F)F [Λ-1, Λ-[Ru(bpy)2(tFPIP)](PF6)2] | 83.0 | 88.9 | 56.4 | 85.2 | 88.8 |
| FC(F)(F)c1ccccc1-c1nc2c3ccc[n+]4c3c3c(ccc[n+]3[Ru-4]435([n+]4ccccc4-c4cccc[n+]43)[n+]3ccccc3-c3cccc[n+]35)c2[nH]1.F[P-](F)(F)(F)(F)F.F[P-](F)(F)(F)(F)F [Δ-1, Δ-[Ru(bpy)2(tFPIP)](PF6)2] | 81.6 | 86.2 | 62.0 | 85.0 | 88.3 |

From patent US8357678B2, “Chair ruthenium complexes and their use as anticancer agents” (Guangdong Pharmaceutical University, priority 2007, dated 2013)
